Results taken from PubChem BioAssay (NCI).
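Where inhibition never reached the appropriate level, the endpoint shown equals the highest concentration tested. Otherwise, values were interpolated linearly from a five-concentration, 48-hour dose response in 96-well plates. TGI marks complete inhibition of growth.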

Experiments:
Test in all cases: DTP human tumour cell line panel, 48 h
[1] = tested on: MALME-3M melanoma
[2] = tested on: MOLT-4 leukemia
[3] = tested on: HCT-116 colon
[4] = tested on: MDA-MB-435
[5] = tested on: NCI-H522 lung
[6] = tested on: HCC-2998 colon
[7] = tested on: LOX IMVI melanoma
[8] = tested on: HS 578T breast
[9] = tested on: DU-145 prostate
[10] = tested on: NCI-H226 lung
[11] = tested on: SK-MEL-5 melanoma
[12] = tested on: RXF 393 renal
[13] = tested on: A549 NSCLC
[14] = tested on: CCRF-CEM leukemia
[15] = tested on: KM12 colon
[16] = tested on: CAKI-1 renal
[17] = tested on: OVCAR-5 ovarian
[18] = tested on: SK-MEL-2 melanoma
[19] = tested on: SF-268 CNS
[20] = tested on: MCF7 breast
[21] = tested on: OVCAR-3 ovarian
[22] = tested on: U251 CNS
[23] = tested on: UACC-257 melanoma
[24] = tested on: HOP-62 NSCLC
[25] = tested on: SN12C renal
[26] = tested on: RPMI-8226 leukemia
[27] = tested on: MDA-MB-231 breast
[28] = tested on: A498 renal
[29] = tested on: SF-295 CNS
[30] = tested on: TK-10 renal
[31] = tested on: M14 melanoma
[32] = tested on: BT-549 breast
[33] = tested on: SNB-19 CNS
[34] = tested on: T-47D breast
[35] = tested on: NCI-H460 lung
[36] = tested on: UACC-62 melanoma
[37] = tested on: SK-OV-3 ovarian
[38] = tested on: COLO 205 colon
[39] = tested on: NCI-H23 lung
[40] = tested on: HOP-92 NSCLC
[41] = tested on: K-562 leukemia
[42] = tested on: SNB-75 CNS
[43] = tested on: SF-539 CNS
[44] = tested on: IGROV1 ovarian
[45] = tested on: HL-60(TB) leukemia
[46] = tested on: SW-620 colon
[47] = tested on: OVCAR-8 ovarian
[48] = tested on: OVCAR-4 ovarian
[49] = tested on: SK-MEL-28 melanoma
[50] = tested on: PC-3 prostate
[51] = tested on: HT29 colon
[52] = tested on: HCT-15 colon
[53] = tested on: UO-31 renal
[54] = tested on: SR leukemia
[55] = tested on: EKVX NSCLC
[56] = tested on: ACHN renal
[57] = tested on: NCI/ADR-RES ovarian
[58] = tested on: 786-0 renal
[59] = tested on: MDA-N

O=C(NCCCCCN1CCC2(CCCCC2)CC1)C(C1CCCCC1)C1CCCCC1
TGI [1]: 3.26 µM
TGI [2]: 4.87 µM
TGI [3]: 8.85 µM
TGI [4]: 3.74 µM
TGI [5]: 9.01 µM
TGI [6]: 2.57 µM
TGI [7]: 7.02 µM
TGI [8]: 9.59 µM
TGI [9]: 9.75 µM
TGI [10]: 11.8 µM
TGI [11]: 2.96 µM
TGI [12]: 8.92 µM
TGI [13]: 16.7 µM
TGI [14]: 11.9 µM
TGI [15]: 13 µM
TGI [16]: 11.6 µM
TGI [17]: 17.7 µM
TGI [18]: 4.82 µM
TGI [19]: 12.5 µM
TGI [20]: 5.37 µM
TGI [21]: 8.97 µM
TGI [22]: 8.53 µM
TGI [23]: 3.43 µM
TGI [24]: 4.07 µM
TGI [25]: 9.67 µM
TGI [26]: 4.71 µM
TGI [27]: 10.8 µM
TGI [28]: 9.42 µM
TGI [29]: 3.56 µM
TGI [30]: 10.4 µM
TGI [31]: 3.23 µM
TGI [32]: 15.4 µM
TGI [33]: 12.5 µM
TGI [34]: 8.43 µM
TGI [35]: 6.46 µM
TGI [36]: 7.2 µM
TGI [37]: 15.1 µM
TGI [38]: 2.84 µM
TGI [39]: 9.89 µM
TGI [40]: 12.2 µM
TGI [41]: 3.5 µM
TGI [42]: 9.48 µM
TGI [43]: 3.43 µM
TGI [44]: 8.78 µM
TGI [45]: 3.62 µM
TGI [46]: 8.05 µM
TGI [47]: 7.23 µM
TGI [48]: 14.5 µM
TGI [49]: 3.64 µM
TGI [50]: 8.17 µM
TGI [51]: 4.62 µM
TGI [52]: 12.2 µM
TGI [53]: 8.46 µM
TGI [54]: 4.17 µM
TGI [55]: 9.66 µM
TGI [56]: 8.68 µM
TGI [57]: 14.9 µM
TGI [58]: 9.65 µM
TGI [59]: 3.51 µM

COc1ccccc1NC(=S)N/N=C/c1cccc(C)n1
TGI [1]: > 81.2 µM
TGI [2]: > 100 µM
TGI [3]: > 100 µM
TGI [4]: > 100 µM
TGI [5]: > 54.8 µM
TGI [6]: > 100 µM
TGI [7]: > 100 µM
TGI [8]: > 100 µM
TGI [9]: > 100 µM
TGI [10]: 37.3 µM
TGI [11]: 47.3 µM
TGI [13]: 86.9 µM
TGI [14]: > 100 µM
TGI [15]: > 100 µM
TGI [16]: 74.7 µM
TGI [17]: > 100 µM
TGI [18]: > 100 µM
TGI [19]: > 100 µM
TGI [20]: > 100 µM
TGI [21]: > 100 µM
TGI [22]: > 87.1 µM
TGI [23]: > 100 µM
TGI [24]: > 62.9 µM
TGI [25]: > 93.8 µM
TGI [26]: > 100 µM
TGI [27]: > 100 µM
TGI [28]: 69.7 µM
TGI [29]: > 100 µM
TGI [30]: > 100 µM
TGI [31]: 9.43 µM
TGI [32]: > 100 µM
TGI [33]: > 100 µM
TGI [34]: > 100 µM
TGI [35]: > 85.5 µM
TGI [36]: 15.1 µM
TGI [37]: > 44.4 µM
TGI [38]: > 100 µM
TGI [39]: > 100 µM
TGI [40]: > 92.8 µM
TGI [41]: > 100 µM
TGI [42]: 53.5 µM
TGI [43]: 28.1 µM
TGI [44]: > 95.8 µM
TGI [45]: > 29.8 µM
TGI [46]: > 100 µM
TGI [47]: > 52.3 µM
TGI [48]: > 100 µM
TGI [49]: > 100 µM
TGI [50]: > 100 µM
TGI [51]: > 100 µM
TGI [52]: > 100 µM
TGI [53]: > 39.1 µM
TGI [54]: 10.4 µM
TGI [55]: > 100 µM
TGI [56]: 25.6 µM
TGI [57]: > 31.1 µM
TGI [58]: 96.9 µM
TGI [59]: > 100 µM
